Measured values as given in patent US9187484B2 (Southern Research Institute, priority 2012, dated 2015).

Biological target: T1, LRRK2 (G2019S) (Homo sapiens, UniProt Q5S007, G2019S)
T1 construct: Recombinant GST-LRRK2 (delta970), purified from baculovirus infected insect cells (SF9); GST (N); host or cells: baculovirus infected insect cells (SF9)
Experiment: LRRK2 inhibition, radiometric kinase assay with recombinant GST-LRRK2 (delta970) and peptide substrate
Format: biochemical
Details: GST-LRRK2 (delta970) G2019S 30 nM, ATP ~52 μM (Km), 30 min at 30° C.
Procedure: Compounds were assessed for inhibition of LRRK2 inhibition using the following procedure.
Recombinant GST-LRRK2 (delta970), purified from baculovirus infected insect cells (SF9), at least 90% pure and either wild-type sequence or bearing the pathogenic G2019S mutation, was combined into a kinase buffer at 30 nM concentration. Kinase buffer consists of 50 mM Tris HCl pH 7.4, 1 mM EDTA, and 50 μM peptide substrate (amino acid sequence […]). Experimental compounds or control (no compound) were added at desired concentrations in DMSO and water, where final concentration of DMSO in kinase reactions was 0.1% for all drug concentrations. Activation buffer that consists of a final concentration in the reactions of 10 mM MgCl2 and ATP (˜92 μM for WT-LRRK2 reactions and ˜52 μM for G2019S-LRRK2, which represent respective Km ATP concentrations) were added to each reaction, in addition to 0.5 μCi of gamma-32-P-dATP per reaction. Reactions were incubated at 1400 RPM at 30° C. for 30 min. and then spotted in triplicate directly onto a slot-blot apparatus fitted with phospho-cellulose paper and allowed to dry. Each slot was then washed with 10 mM phosphoric acid buffer until beta-radiation could not be detected in eluted wash buffer, usually ˜1 mL per slot. Paper within each slot were excised and radiation measured by liquid scintillation.

T1 sequence (Q5S007 970-2527 G2019S limits assumed): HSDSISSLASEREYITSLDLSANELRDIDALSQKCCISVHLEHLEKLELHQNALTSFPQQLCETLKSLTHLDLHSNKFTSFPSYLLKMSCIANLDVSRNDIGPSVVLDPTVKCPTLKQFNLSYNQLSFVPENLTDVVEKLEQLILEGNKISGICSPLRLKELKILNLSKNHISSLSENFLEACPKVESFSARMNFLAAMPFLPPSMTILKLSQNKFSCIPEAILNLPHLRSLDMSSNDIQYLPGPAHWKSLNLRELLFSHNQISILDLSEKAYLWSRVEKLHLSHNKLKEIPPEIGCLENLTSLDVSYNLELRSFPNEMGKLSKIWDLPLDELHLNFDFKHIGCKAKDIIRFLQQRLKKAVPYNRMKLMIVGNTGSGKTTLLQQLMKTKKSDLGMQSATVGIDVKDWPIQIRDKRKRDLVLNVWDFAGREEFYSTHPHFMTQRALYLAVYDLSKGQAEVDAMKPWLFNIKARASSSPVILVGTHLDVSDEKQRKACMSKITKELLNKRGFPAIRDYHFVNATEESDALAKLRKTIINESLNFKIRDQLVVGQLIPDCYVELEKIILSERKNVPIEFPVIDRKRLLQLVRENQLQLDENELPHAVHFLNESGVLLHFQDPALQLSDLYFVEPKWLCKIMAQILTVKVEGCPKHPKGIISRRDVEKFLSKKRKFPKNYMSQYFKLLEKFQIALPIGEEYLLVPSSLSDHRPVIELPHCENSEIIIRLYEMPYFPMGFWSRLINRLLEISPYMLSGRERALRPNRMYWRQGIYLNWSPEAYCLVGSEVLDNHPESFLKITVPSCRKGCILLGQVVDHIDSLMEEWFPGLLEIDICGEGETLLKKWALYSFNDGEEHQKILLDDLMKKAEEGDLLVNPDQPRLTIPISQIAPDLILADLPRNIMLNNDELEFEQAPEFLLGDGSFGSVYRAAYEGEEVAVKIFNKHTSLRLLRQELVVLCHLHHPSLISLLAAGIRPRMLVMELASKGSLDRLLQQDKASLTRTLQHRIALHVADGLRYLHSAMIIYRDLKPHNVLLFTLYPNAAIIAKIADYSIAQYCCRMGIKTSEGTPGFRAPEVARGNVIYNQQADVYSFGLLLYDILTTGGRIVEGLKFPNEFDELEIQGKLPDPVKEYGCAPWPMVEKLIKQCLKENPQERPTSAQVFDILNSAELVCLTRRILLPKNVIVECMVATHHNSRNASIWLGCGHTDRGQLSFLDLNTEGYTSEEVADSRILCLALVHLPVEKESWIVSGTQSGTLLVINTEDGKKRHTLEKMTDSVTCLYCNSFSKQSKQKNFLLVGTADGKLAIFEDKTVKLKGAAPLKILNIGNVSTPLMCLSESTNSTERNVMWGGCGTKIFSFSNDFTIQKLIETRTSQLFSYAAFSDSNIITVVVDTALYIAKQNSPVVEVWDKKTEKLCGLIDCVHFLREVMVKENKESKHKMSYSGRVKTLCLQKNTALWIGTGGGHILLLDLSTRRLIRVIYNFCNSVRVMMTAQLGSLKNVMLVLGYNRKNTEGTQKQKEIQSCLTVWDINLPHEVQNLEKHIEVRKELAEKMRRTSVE

SMILES	IC50 [nM]
CCOC(=O)C(CC)Sc1ccc2nnc(-c3ccc(F)cc3)n2n1 (stereo not shown) [Example 1, ethyl 2-((3-(4-fluorophenyl)-[1,2,4]triazolo[4,3-b]pyridazin-6-yl)thio)butanoate]	≥ 5000
CCOC(=O)CSc1ccc2nnc(-c3ccncc3)n2n1 [Example 2, ethyl 2-((3-(pyridin-4-yl)-[1,2,4]triazolo[4,3-b]pyridazin-6-yl)thio)acetate]	≥ 5000
NC(=O)CSc1ccc2nnc(-c3ccncc3)n2n1 [Example 4, 2-((3-(pyridin-4-yl)-[1,2,4]triazolo[4,3-b]pyridazin-6-yl)thio)acetamide]	≥ 5000
CCC(Sc1ccc2nnc(-c3ccc(F)cc3)n2n1)C(=O)Nc1nccs1 (stereo not shown) [Example 7, 2-((3-(4-fluorophenyl)-[1,2,4]triazolo[4,3-b]pyridazin-6-yl)thio)-N-(thiazol-2-yl)butanamide]	≥ 5000
CCC(Sc1ccc2nnc(-c3ccc(F)cc3)n2n1)C(=O)N1CCCCC1 (stereo not shown) [Example 9, 2-((3-(4-fluorophenyl)-[1,2,4]triazolo[4,3-b]pyridazin-6-yl)thio)-1-(piperidin-1-yl)butan-1-one]	1000 to 5000
NC(=O)CSc1ccc2nnc(C3CCCCC3)n2n1 [Example 10, 2-((3-cyclohexyl-[1,2,4]triazolo[4,3-b]pyridazin-6-yl)thio)acetamide]	≥ 5000
CCC(Sc1ccc2nnc(-c3ccc(F)cc3)n2n1)C(=O)Nc1cnc2ccccc2c1 (stereo not shown) [Example 12]	≥ 5000
Cc1ccc(-c2nnc3ccc(SCC(=O)O)nn23)cc1 [Example 13, 2-((3-(p-tolyl)-[1,2,4]triazolo[4,3-b]pyridazin-6-yl)thio)acetic acid]	1000 to 5000
CCC(Sc1ccc2nnc(-c3ccc(F)cc3)n2n1)C(=O)Nc1ccccc1C(F)(F)F (stereo not shown) [Example 14, 2-((3-(4-fluorophenyl)-[1,2,4]triazolo[4,3-b]pyridazin-6-yl)thio)-N-(2-(trifluoromethyl)phenyl)butanamide]	≥ 5000
NC(=O)CSc1ccc2nnc(C3CCCC3)n2n1 [Example 15, 2-((3-cyclopentyl-[1,2,4]triazolo[4,3-b]pyridazin-6-yl)thio)acetamide]	1000 to 5000
NC(=O)CSc1ccc2nnc(-c3ccccn3)n2n1 [Example 16, 2-((3-(pyridin-2-yl)-[1,2,4]triazolo[4,3-b]pyridazin-6-yl)thio)acetamide]	≥ 5000
O=C(O)CSc1ccc2nnc(-c3ccc(F)cc3)n2n1 [Example 17, 2-((3-(4-fluorophenyl)-[1,2,4]triazolo[4,3-b]pyridazin-6-yl)thio)acetic acid]	≥ 5000
NC(=O)CSc1ccc2nnc(-c3ccc(F)cc3)n2n1 [Example 19, 2-((3-(4-fluorophenyl)-[1,2,4]triazolo[4,3-b]pyridazin-6-yl)thio)acetamide]	1000 to 5000
c1csc(-c2nnc3ccc(N4CCCCC4)nn23)c1 [Example 20, 6-(piperidin-1-yl)-3-(thiophen-2-yl)-[1,2,4]triazolo[4,3-b]pyridazine]	≥ 5000
Cc1ccc(-c2nnc3ccc(SCC(=O)N4CCCC4)nn23)cc1 [Example 25, 1-(pyrrolidin-1-yl)-2-((3-(p-tolyl)-[1,2,4]triazolo[4,3-b]pyridazin-6-yl)thio)ethanone]	1000 to 5000
O=C(O)CSc1ccc2nnc(-c3cccs3)n2n1 [Example 27, 2-((3-(thiophen-2-yl)-[1,2,4]triazolo[4,3-b]pyridazin-6-yl)thio)acetic acid]	≥ 5000
O=C(O)CSc1ccc2nnc(-c3ccco3)n2n1 [Example 28, 2-((3-(furan-2-yl)-[1,2,4]triazolo[4,3-b]pyridazin-6-yl)thio)acetic acid]	≥ 5000
NC(=O)CSc1ccc2nnc(-c3cc4ccccc4s3)n2n1 [Example 29, 2-((3-(benzo[b]thiophen-2-yl)-[1,2,4]triazolo[4,3-b]pyridazin-6-yl)thio)acetamide]	≥ 5000
O=C(O)CSc1ccc2nnc(-c3cc4ccccc4s3)n2n1 [Example 30, 2-((3-(benzo[b]thiophen-2-yl)-[1,2,4]triazolo[4,3-b]pyridazin-6-yl)thio)acetic acid]	≥ 5000
O=C(O)CSc1ccc2nnc(-c3cc4ccccc4o3)n2n1 [Example 31, 2-((3-(benzofuran-2-yl)-[1,2,4]triazolo[4,3-b]pyridazin-6-yl)thio)acetic acid]	≥ 5000
NC(=O)CSc1ccc2nnc(-c3cc4ccccc4o3)n2n1 [Example 32, 2-((3-(benzofuran-2-yl)-[1,2,4]triazolo[4,3-b]pyridazin-6-yl)thio)acetamide]	≥ 5000
NC(=O)CSc1ccc2nnc(-c3csc4ccccc34)n2n1 [Example 35, 2-((3-(benzo[b]thiophen-3-yl)-[1,2,4]triazolo[4,3-b]pyridazin-6-yl)thio)acetamide]	1000 to 5000
CC(Sc1ccc2nnc(-c3cccs3)n2n1)C(=O)O (stereo not shown) [Example 36, 2-((3-(thiophen-2-yl)-[1,2,4]triazolo[4,3-b]pyridazin-6-yl)thio)propanoic acid]	100 to 1000

Second part, the compound after the results:

IC50 [nM]	SMILES
100 to 1000	NC(=O)CSc1ccc2nnc(-c3cccs3)n2n1 [Example 3, 2-((3-(thiophen-2-yl)-[1,2,4]triazolo[4,3-b]pyridazin-6-yl)thio)acetamide]
100 to 1000	NC(=O)CSc1ccc2nnc(-c3ccsc3)n2n1 [Example 5, 2-((3-(thiophen-3-yl)-[1,2,4]triazolo[4,3-b]pyridazin-6-yl)thio)acetamide]
100 to 1000	CCC(Sc1ccc2nnc(-c3ccc(F)cc3)n2n1)C(=O)O (stereo not shown) [Example 6, 2-((3-(4-fluorophenyl)-[1,2,4]triazolo[4,3-b]pyridazin-6-yl)thio)butanoic acid]
100 to 1000	CCC(Sc1ccc2nnc(-c3ccc(F)cc3)n2n1)C(=O)N1CCCC1 (stereo not shown) [Example 8, 2-((3-(4-fluorophenyl)-[1,2,4]triazolo[4,3-b]pyridazin-6-yl)thio)-1-(pyrrolidin-1-yl)butan-1-one]
100 to 1000	O=C(CSc1ccc2nnc(-c3cccs3)n2n1)N1CCCCC1 [Example 11, 1-(piperidin-1-yl)-2-((3-(thiophen-2-yl)-[1,2,4]triazolo[4,3-b]pyridazin-6-yl)thio)ethanone]
100 to 1000	CCC(Sc1ccc2nnc(-c3cccs3)n2n1)C(=O)O (stereo not shown) [Example 18, 2-((3-(thiophen-2-yl)-[1,2,4]triazolo[4,3-b]pyridazin-6-yl)thio)butanoic acid]
100 to 1000	O=C(CSc1ccc2nnc(-c3cccs3)n2n1)N1CCCC1 [Example 21, 1-(pyrrolidin-1-yl)-2-((3-(thiophen-2-yl)-[1,2,4]triazolo[4,3-b]pyridazin-6-yl)thio)ethanone]
100 to 1000	O=C(CSc1ccc2nnc(-c3cccs3)n2n1)Nc1nccs1 [Example 23, N-(thiazol-2-yl)-2-((3-(thiophen-2-yl)-[1,2,4]triazolo[4,3-b]pyridazin-6-yl)thio)acetamide]
100 to 1000	O=C(CSc1ccc2nnc(-c3cccs3)n2n1)N1CCOCC1 [Example 24, 1-morpholino-2-((3-(thiophen-2-yl)-[1,2,4]triazolo[4,3-b]pyridazin-6-yl)thio)ethanone]
100 to 1000	NC(=O)CSc1ccc2nnc(-c3ccco3)n2n1 [Example 26, 2-((3-(furan-2-yl)-[1,2,4]triazolo[4,3-b]pyridazin-6-yl)thio)acetamide]
100 to 1000	CCC(Sc1ccc2nnc(-c3nccs3)n2n1)C(=O)O (stereo not shown) [Example 33, 2-((3-(thiazol-2-yl)-[1,2,4]triazolo[4,3-b]pyridazin-6-yl)thio)butanoic acid]
